Patent US20140010939A1, “Sweetness Enhancers, Sweetener Compositions, Methods of Making the Same and Consumables Containing the Same” (Nutrinova Nutrition Specialties & Food Ingredients GmbH, priority 2011, published 2014)
“Also recorded” adds a separate entry of the source.

Molecular target: T1, heterodimeric hT1R2/hT1R3 sweet taste receptor (Homo sapiens, UniProt Q7RTX0+Q8TE23)
T1 construct: expressed in transfected cells
T1 sequence (Q8TE23 20-839): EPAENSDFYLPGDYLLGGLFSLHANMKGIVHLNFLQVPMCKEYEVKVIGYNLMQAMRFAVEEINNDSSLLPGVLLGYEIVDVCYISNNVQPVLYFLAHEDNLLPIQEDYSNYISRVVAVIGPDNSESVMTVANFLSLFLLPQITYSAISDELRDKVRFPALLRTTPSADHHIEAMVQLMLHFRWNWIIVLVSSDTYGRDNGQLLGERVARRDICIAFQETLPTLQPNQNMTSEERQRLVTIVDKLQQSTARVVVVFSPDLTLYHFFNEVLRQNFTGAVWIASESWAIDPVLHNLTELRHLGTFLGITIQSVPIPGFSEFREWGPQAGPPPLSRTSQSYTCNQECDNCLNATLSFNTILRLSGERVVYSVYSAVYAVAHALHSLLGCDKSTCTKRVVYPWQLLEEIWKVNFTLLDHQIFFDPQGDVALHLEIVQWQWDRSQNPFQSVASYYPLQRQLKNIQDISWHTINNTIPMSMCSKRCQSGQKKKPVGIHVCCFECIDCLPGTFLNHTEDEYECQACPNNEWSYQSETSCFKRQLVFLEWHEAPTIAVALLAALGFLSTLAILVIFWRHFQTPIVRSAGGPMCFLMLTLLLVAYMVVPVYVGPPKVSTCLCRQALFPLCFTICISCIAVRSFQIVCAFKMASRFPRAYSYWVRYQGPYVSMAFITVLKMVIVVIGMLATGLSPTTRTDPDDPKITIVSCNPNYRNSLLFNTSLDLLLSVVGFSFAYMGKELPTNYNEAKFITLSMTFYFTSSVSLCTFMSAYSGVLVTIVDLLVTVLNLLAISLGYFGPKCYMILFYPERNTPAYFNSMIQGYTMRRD
T1 sequence (Q7RTX0 21-852): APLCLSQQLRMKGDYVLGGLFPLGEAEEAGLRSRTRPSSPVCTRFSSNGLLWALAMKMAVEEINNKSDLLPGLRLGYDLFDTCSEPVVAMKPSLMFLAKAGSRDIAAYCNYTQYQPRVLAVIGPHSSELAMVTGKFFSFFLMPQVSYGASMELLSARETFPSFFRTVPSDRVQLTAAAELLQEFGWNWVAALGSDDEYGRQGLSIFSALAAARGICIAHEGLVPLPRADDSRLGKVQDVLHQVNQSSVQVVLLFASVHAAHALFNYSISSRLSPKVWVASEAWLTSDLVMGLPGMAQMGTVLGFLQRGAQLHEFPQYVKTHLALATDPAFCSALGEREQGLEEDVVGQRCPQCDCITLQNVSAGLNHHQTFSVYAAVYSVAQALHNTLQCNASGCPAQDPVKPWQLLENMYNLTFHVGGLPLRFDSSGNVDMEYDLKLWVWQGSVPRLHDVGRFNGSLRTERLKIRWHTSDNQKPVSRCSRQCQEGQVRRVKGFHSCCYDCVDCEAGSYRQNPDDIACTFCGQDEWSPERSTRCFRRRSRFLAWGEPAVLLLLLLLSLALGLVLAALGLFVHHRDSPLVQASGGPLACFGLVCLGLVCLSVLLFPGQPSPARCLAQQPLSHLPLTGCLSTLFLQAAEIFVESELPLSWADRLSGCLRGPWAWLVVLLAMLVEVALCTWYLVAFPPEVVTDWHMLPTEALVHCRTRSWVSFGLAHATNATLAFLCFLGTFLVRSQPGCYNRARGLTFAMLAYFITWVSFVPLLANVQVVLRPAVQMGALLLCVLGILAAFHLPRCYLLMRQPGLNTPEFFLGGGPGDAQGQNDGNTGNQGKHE
Assay: Recombinant human taste receptor T1R2/T1R3 dependent cell based assay (calcium, Fluo4-AM fluorescence)
Experimental: For measurement of human T1R2/T1R3 taste receptor dependent activity a control cell line without sweet receptor based on HEK 293 and a cell line expressing the sweet receptor hT1R2/hT1R3 based on HEK 293, respectively, are seeded into assay plates and labelled with the calcium sensitive fluorescence dye Fluo4-AM in a culture medium. The potential modulators, e.g. the test compound, are added to the control cell line and to the cell line expressing the sweet receptor hT1R2/hT1R3, respectively.
A stable cell line based on HEK293 was termed HEKα15#17 served as control for functional Ga-protein and a stable cell line HEKGα15#17R2R3b#8 C6 served as cell line expressing the sweet receptor hT1R2/hT1R3 based on HEKGα15#17.
The cells were cultured in DMEM/HG and 10% FCS Gold, 4 mM L-Glutamin, 1,3 mg/ml Geneticin (HEKGα15#17) or the same medium additionally containing 6 μg/ml Blasticidin (HEKGα15#17R2R3b#8 C6). The medium for the assay was DMEM/HG (high glucose, 4.5 g/l glucose, Life Technologies) and 10% FCS Gold, 4 mM L-Glutamin (HEKGα15#17) or DMEM/LG (low glucose, 1 g/l glucose; Life Technologies) and 10% FCS Gold (HEKGα15#17R2R3b#8C6), respectively.
In order to evaluate the sweet receptor modulating activity of the compound of formula (Ia), compound of formula (Ia) was added to the cultures in a concentration of 25 μM in a volume of 50 μl. Controls were KH-buffer (Krebs HEPES-buffer: 118 mM NaCl, 4.7 mM KCl, 1.2 mM MgSO4, 1.2 mM KH2PO4, 4.2 mM NaHCO3, 1.3 mM CaCl2, 10 mM Hepes, pH 7.4) either without or with sweetness enhancer.
Further controls for function of G-protein and receptor were isoproterenol (1 μM, Sigma Aldrich), ionomycin (1 μM, Calbiochem) and ATP (1 μM, Applichem). […]
On day 2 the cells were seeded into assay plates at a density of 25,000 cells/well. Assay plates for fluorescence measurement (black clear bottom 96-cavity plates, Greiner Bio-One) were coated with poly-D-lysine. […]

Fluo4-AM fluorescence increase (cellular activation) (primary screening, receptor carrying cells only, FIG. 1 sixth bar): strong cellular activation
SMILES: CC(=O)N(O)CCCCCNC(=O)C(O)(CC(=O)O)CC(=O)NCCCN(O)C(C)=O (stereo not drawn) [compound of formula (Ia)]
Enhancement of the activity of fructose (sweetness enhancer activity in vitro) (25 μM with fructose (20 mM) versus KH buffer/fructose): fructose enhancer; also recorded: enhances the activity of fructose
Time response in the cell assay (measured over a period of 78 seconds, FIG. 2 / inserted graph): selective stimulation of receptor carrying cells
